Measured values as given in US12077503B2, “Substituted cyclic amides and their use as herbicides” (FMC CORPORATION, priority 2015, dated 2024).

How the values were obtained:
Type in all cases: in vivo
[1] = test system: Kochia (Kochia scoparia); test: Test A preemergence; conditions: Bassia scoparia, pre-emergence, 240 h, 0 to 100 scale (0 no effect, 100 complete control), read-out: Plant response rating, Kochia; for pest or weed control at 500 g/ha: 500 g ai/ha, preemergence; for pest or weed control at 125 g/ha: Preemergence, 125 g ai/ha
How it was run: (§1)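 Ratings of 0 (no effect) to 100 (complete control) come from visual comparison with untreated controls roughly 10 d after treatment. Test chemicals, formulated in a non-phytotoxic solvent mixture with surfactant, were applied either as a preemergence directed soil spray on seeded soil or postemergence to one- to two-leaf plants 2 to 10 cm tall.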

[2] = test system: barnyardgrass (Echinochloa crus-galli); test: Test A preemergence; conditions: Echinochloa crus-galli, pre-emergence, 240 h, 0 to 100 scale (0 no effect, 100 complete control), read-out: Plant response rating, Barnyardgrass; for pest or weed control at 500 g/ha: 500 g ai/ha, preemergence; for pest or weed control at 125 g/ha: Preemergence, 125 g ai/ha
How it was run: as §1

[3] = test system: giant foxtail (Setaria faberii); test: Test A preemergence; conditions: Setaria faberi, pre-emergence, 240 h, 0 to 100 scale (0 no effect, 100 complete control), read-out: Plant response rating, Foxtail, Giant; for pest or weed control at 500 g/ha: 500 g ai/ha, preemergence; for pest or weed control at 125 g/ha: Preemergence, 125 g ai/ha
How it was run: as §1

[4] = test system: pigweed (Amaranthus retroflexus); test: Test A preemergence; conditions: Amaranthus retroflexus, pre-emergence, 240 h, 0 to 100 scale (0 no effect, 100 complete control), read-out: Plant response rating, Pigweed; for pest or weed control at 500 g/ha: 500 g ai/ha, preemergence; for pest or weed control at 125 g/ha: Preemergence, 125 g ai/ha
[5] = test system: ragweed (common ragweed, Ambrosia elatior); test: Test A preemergence; conditions: Ambrosia artemisiifolia, pre-emergence, 240 h, 0 to 100 scale (0 no effect, 100 complete control), read-out: Plant response rating, Ragweed; for pest or weed control at 500 g/ha: 500 g ai/ha, preemergence; for pest or weed control at 125 g/ha: Preemergence, 125 g ai/ha
How it was run: as §1

[6] = test system: ryegrass, Italian (Italian ryegrass, Lolium multiflorum); test: Test A preemergence; conditions: Lolium multiflorum, pre-emergence, 240 h, 0 to 100 scale (0 no effect, 100 complete control), read-out: Plant response rating, Ryegrass, Italian; for pest or weed control at 500 g/ha: 500 g ai/ha, preemergence; for pest or weed control at 125 g/ha: Preemergence, 125 g ai/ha
How it was run: as §1

[7] = test system: Galium (catchweed bedstraw, Galium aparine); test: Test A postemergence; conditions: Galium, post-emergence, 240 h, Postemergence; for pest or weed control at 125 g/ha: 125 g ai/ha, visual rating about 10 d after treatment, read-out: Galium plant response rating (0 to 100 scale); for pest or weed control at 500 g/ha: 500 g ai/ha, visual injury, 0 to 100 scale (0 no effect, 100 complete control), approx. 10 d, read-out: Plant response rating, Galium
How it was run: as §1

[8] = test system: Kochia (Kochia scoparia); test: Test A postemergence; conditions: Bassia scoparia, post-emergence, 240 h, Postemergence; for pest or weed control at 125 g/ha: 125 g ai/ha, visual rating about 10 d after treatment, read-out: Kochia plant response rating (0 to 100 scale); for pest or weed control at 500 g/ha: 500 g ai/ha, visual injury, 0 to 100 scale (0 no effect, 100 complete control), approx. 10 d, read-out: Plant response rating, Kochia
How it was run: as §1

[9] = test system: corn (Zea mays); test: Test A postemergence; conditions: Zea mays, post-emergence, 240 h, Postemergence; for plant injury at 125 g/ha: 125 g ai/ha, visual rating about 10 d after treatment, read-out: Corn plant response rating (0 to 100 scale); for Corn plant response rating (crop injury, 0 = no effect, 100 = complete kill) at 500 g/ha: 500 g ai/ha, visual injury, 0 to 100 scale (0 no effect, 100 complete control), approx. 10 d
How it was run: as §1

[10] = test system: pigweed (Amaranthus retroflexus); test: Test A postemergence; conditions: Amaranthus retroflexus, post-emergence, 240 h, Postemergence; for pest or weed control at 125 g/ha: 125 g ai/ha, visual rating about 10 d after treatment, read-out: Pigweed plant response rating (0 to 100 scale); for pest or weed control at 500 g/ha: 500 g ai/ha, visual injury, 0 to 100 scale (0 no effect, 100 complete control), approx. 10 d, read-out: Plant response rating, Pigweed
How it was run: as §1

[11] = test system: barnyardgrass (Echinochloa crus-galli); test: Test B flooded paddy test; conditions: Echinochloa crus-galli, 360 h, Flood, 250 g ai/ha; visually evaluated after 13 to 15 d; read-out: Plant response rating, Barnyardgrass (0 to 100 scale where 0 is no effect and 100 is complete control)
How it was run: (§2)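 Rating scale 0–100 (visual, vs untreated controls) after a 13–15 d greenhouse period; application to the flood layer, 3 cm above soil and maintained; plants at 2-leaf stage when treated.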

[12] = test system: ducksalad (Heteranthera limosa); test: Test B flooded paddy test; conditions: Heteranthera limosa, 360 h, Flood, 250 g ai/ha; visually evaluated after 13 to 15 d; read-out: Plant response rating, Ducksalad (0 to 100 scale where 0 is no effect and 100 is complete control)
How it was run: as §2

[13] = test system: rice (Oryra sativa); test: Test B flooded paddy test; conditions: Oryza sativa, 360 h, Flood, 250 g ai/ha; visually evaluated after 13 to 15 d; read-out: Plant response rating, Rice (0 to 100 scale where 0 is no effect and 100 is complete control)
How it was run: as §2

[14] = test system: sedge, umbrella (small-flower umbrella sedge, Cyperus difformis); test: Test B flooded paddy test; conditions: Cyperus difformis, 360 h, Flood, 250 g ai/ha; visually evaluated after 13 to 15 d; read-out: Plant response rating, Sedge, Umbrella (0 to 100 scale where 0 is no effect and 100 is complete control)
How it was run: as §2

SMILES | pest or weed control at 500 g/ha [1] | pest or weed control at 125 g/ha [1] | pest or weed control at 500 g/ha [2] | pest or weed control at 125 g/ha [2] | pest or weed control at 500 g/ha [3] | pest or weed control at 125 g/ha [3] | pest or weed control at 500 g/ha [4] | pest or weed control at 125 g/ha [4] | pest or weed control at 500 g/ha [5] | pest or weed control at 125 g/ha [5] | pest or weed control at 500 g/ha [6] | pest or weed control at 125 g/ha [6] | pest or weed control at 125 g/ha [7] | pest or weed control at 500 g/ha [7] | pest or weed control at 125 g/ha [8] | pest or weed control at 500 g/ha [8] | plant injury at 125 g/ha [9] | Corn plant response rating (crop injury, 0 = no effect, 100 = complete kill) at 500 g/ha [9] | pest or weed control at 125 g/ha [10] | pest or weed control at 500 g/ha [10] | also measured
CN1C[C@H](c2ccc(C(F)F)cc2)[C@@H](C(=O)Nc2cccc(F)c2F)C1=O [Compound 1383] | 90% | 90% | 100% | 100% | 100% | 100% | 80% | 80% | 80% | 80% | 70% | 70% | 60% | 60% | 70% | 70% | 80% | 90% | 40% | 70% | pest or weed control at 250 g/ha [11]: 65%; pest or weed control at 250 g/ha [12]: 100%; pest or weed control at 250 g/ha [13]: 25%; pest or weed control at 250 g/ha [14]: 0%
CN1CC[C@H](c2cccc(C(F)(F)F)c2)[C@@H](C(=O)Nc2ccccc2F)C1=O [Compound 1331] | 0% | 0% | 90% | 90% | 100% | 90% | 0% | 0% | 0% | 0% | 80% | 20% | 0% | 0% | 0% | 0% | 20% | 70% | 0% | 0% | pest or weed control at 250 g/ha [11]: 70%; pest or weed control at 250 g/ha [12]: 20%; pest or weed control at 250 g/ha [13]: 0%; pest or weed control at 250 g/ha [14]: 0%
